Test results as given in US8691511B2, “Hydroxylated 1,2,4-oxadiazole benzoic acid compounds, compositions thereof and their use in bioassays” (PTC Therapeutics, Inc., priority 2006, dated 2014).

Legend:
[1] = tested on: luciferase reporter construct containing a UGA premature termination codon; experiment: cell-based luciferase reporter assay (nonsense suppression); settings: 293T Human Embryonic Kidney cells stably transfected with UGA luciferase reporter; internal standard
Text: (§1) Two assays were developed for use in high throughput screens to identify small molecules that promote nonsense suppression. Each assay utilized luciferase because it is a functional reporter gene assay (light is only produced if the protein is functional) and it is extremely sensitive (Light intensity is proportional to luciferase concentration in the nM range). The first assay is a cell-based luciferase reporter assay and the second is a biochemical assay consisting of rabbit reticulocyte lysate and a nonsense-containing luciferase reporter mRNA. In the cell-based assay, a luciferase reporter construct containing a UGA premature termination codon was stably transfected in 293T Human Embryonic Kidney cells. In the biochemical assay, mRNA containing a UGA premature termination codon was used as a reporter in an in vitro translation reaction using rabbit reticulocyte lysate supplemented with tRNA, hemin, creatine kinase, amino acids, KOAc, Mg(OAc)2, and creatine phosphate. […] Synthetic mRNA was prepared in vitro using the T7 promoter and the MegaScript in vitro transcription kit (Ambion).

[2] = tested on: mRNA containing a UGA premature termination codon; experiment: biochemical in vitro translation assay, rabbit reticulocyte lysate with nonsense-containing luciferase reporter mRNA; settings: in vitro translation reaction using rabbit reticulocyte lysate, internal standard
Text: as §1

luciferase activity [2]: increased luciferase activity
SMILES: CC(C)c1ccc(N2CC(=O)N(c3cccc(C(=O)O)c3)C2=O)cc1 [3-[3-(4-Isopropyl-phenyl)-2,5-dioxo-imidazolidin-1-yl]-benzoic acid]
luciferase activity [1]: increased luciferase activity
